For 13 compounds, TGI and GI50 results are on record in PubChem BioAssay (NCI).

SMILES strings stand for the structures.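 Compound exposure: 48 hours, 5 concentrations, 96-well plates. GI50 is the concentration that inhibits growth by half. TGI: total growth inhibition.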 Some results are limits rather than exact numbers.

Among the test systems are A549 NSCLC; CCRF-CEM leukemia; HOP-62 NSCLC; MCF7 breast; NCI-H226 lung; RPMI-8226 leukemia; SF-539 CNS; HS 578T breast.
Assay in all cases: DTP human tumour cell line panel, 48 h

As for `O=C(O)CC1OCC=C2CN3CCC45c6ccccc6NC4C1C2CC35` (stereo not given), the concentration for total growth inhibition (TGI) with A549 NSCLC, with CCRF-CEM leukemia, in the experiment with HOP-62 NSCLC, in the experiment with MCF7 breast, in the experiment with NCI-H226 lung and in the experiment on RPMI-8226 leukemia was over 100 µM throughout. The compound also gave a TGI with SF-539 CNS of over 100 µM.

Regarding `NC(CC(=O)OCc1ccccc1)C(=O)OCc1ccccc1` (stereo not given), the TGI in the experiment on A549 NSCLC, with CCRF-CEM leukemia, in the experiment on HOP-62 NSCLC, in the experiment with HS 578T breast, in the experiment with MCF7 breast and in the experiment on RPMI-8226 leukemia was over 100 µM each time. The TGI in the experiment on SF-539 CNS was over 100 µM.

Regarding `CC12CCCC(O)C1CCC1=CC3(CCC12)SCCS3` (stereo not given), the TGI in the experiment with A549 NSCLC, in the experiment with CCRF-CEM leukemia, in the experiment with HOP-62 NSCLC, in the experiment with MCF7 breast and in the experiment on RPMI-8226 leukemia was over 10 µM throughout.

For the compound `CC/C=C\C[C@@H]1C/C=C2/C(=O)C=C[C@H]2C/C=C\CCCC(=O)O1`, the GI50 is 0.526 µM with A549 NSCLC; 0.24 µM in the experiment on CCRF-CEM leukemia; 1.07 µM with HOP-62 NSCLC; 2.84 µM with HS 578T breast; 0.356 µM in the experiment on MCF7 breast; 0.331 µM in the experiment on RPMI-8226 leukemia. In addition, the GI50 in the experiment on SF-539 CNS is 0.533 µM. Further, the TGI in the experiment on A549 NSCLC was 2.2 µM; in the experiment with CCRF-CEM leukemia, 1.58 µM; in the experiment with HOP-62 NSCLC, 3.68 µM; in the experiment on HS 578T breast, 9.11 µM; in the experiment on MCF7 breast, 2.12 µM; in the experiment with RPMI-8226 leukemia, 1.33 µM. Moreover, in the experiment with SF-539 CNS, the concentration for total growth inhibition (TGI) came to 2.97 µM.

For the compound `CCOC(=O)Sc1ncnc2nc[nH]c12`, the GI50 with A549 NSCLC is 25.9 µM; with CCRF-CEM leukemia, 0.629 µM; in the experiment with HOP-62 NSCLC, 0.808 µM; in the experiment on HS 578T breast, 13.8 µM; in the experiment on MCF7 breast, 0.616 µM; in the experiment with NCI-H226 lung, 4.46 µM. The GI50 in the experiment on SF-539 CNS was 2.35 µM. The total growth inhibition concentration (TGI) in the experiment with A549 NSCLC was over 100 µM; in the experiment with CCRF-CEM leukemia it was 13.4 µM; with HOP-62 NSCLC, over 100 µM; in the experiment on HS 578T breast it was over 100 µM; in the experiment on MCF7 breast it was over 100 µM; in the experiment with NCI-H226 lung, over 100 µM. Further, the TGI in the experiment on SF-539 CNS was over 100 µM.

Consider `CC(=O)OC1CC(O)C23COC(O)C1(C)C2CC(O)C1(C)C3C(=O)C(O)C2(C)C(c3ccoc3)CC3OC321` (stereo not given), for which the GI50 with A549 NSCLC was 0.0674 µM; in the experiment on CCRF-CEM leukemia, under 0.0162 µM; in the experiment with HOP-62 NSCLC, 0.685 µM; in the experiment on MCF7 breast it was over 100 µM; with NCI-H226 lung, under 0.0188 µM; in the experiment on RPMI-8226 leukemia it was under 0.01 µM. Further, the GI50 in the experiment on SF-539 CNS was 0.14 µM. For the same compound, the TGI in the experiment with A549 NSCLC was over 100 µM; with CCRF-CEM leukemia, over 100 µM; in the experiment on HOP-62 NSCLC it was over 100 µM; in the experiment with MCF7 breast, over 100 µM; with NCI-H226 lung, 18.4 µM; in the experiment on RPMI-8226 leukemia it was 0.0237 µM. For the same compound, the TGI with SF-539 CNS is over 100 µM.

As for `CN(C)c1ccc(N)cc1`, the GI50 in the experiment with A549 NSCLC was 4.58 µM; with MCF7 breast, 2.83 µM; in the experiment on NCI-H226 lung, 12.4 µM; in the experiment on RPMI-8226 leukemia, 2.71 µM; in the experiment on SF-539 CNS, 10.3 µM. Moreover, the total growth inhibition concentration (TGI) with A549 NSCLC came to 52.6 µM; in the experiment with MCF7 breast, 9.12 µM; in the experiment on NCI-H226 lung, 48 µM; with RPMI-8226 leukemia it was 9.1 µM; with SF-539 CNS, 25.5 µM.

For `CCOC(=O)c1cc(/C(=N\O)c2cc(OC)c(OC)c(OC)c2)n2cc(C)cc(C)c12`, the GI50 with A549 NSCLC was 3.99 µM; with HOP-62 NSCLC it was 1.73 µM; in the experiment on HS 578T breast it was 2.7 µM; with MCF7 breast it was 1.93 µM; with RPMI-8226 leukemia it was 2.46 µM. In addition, the TGI is over 100 µM in the experiment with A549 NSCLC; 5.45 µM in the experiment on HOP-62 NSCLC; over 100 µM with HS 578T breast; over 100 µM in the experiment on MCF7 breast; 5.79 µM in the experiment on RPMI-8226 leukemia.

As to `O=C1NC(=O)c2ccc([N+](=O)[O-])c3cccc1c23`, the concentration for total growth inhibition (TGI) with A549 NSCLC turned out to be 43.9 µM; with HOP-62 NSCLC, 49.2 µM; in the experiment with HS 578T breast, 61 µM; in the experiment with MCF7 breast, 27.9 µM; in the experiment with NCI-H226 lung it was 43.6 µM; in the experiment with RPMI-8226 leukemia, 37.7 µM. This compound also returned a concentration for total growth inhibition (TGI) in the experiment on SF-539 CNS of 31.8 µM.

With `CN(C)CCNC(=O)c1cccc(C(=O)Nc2ccccc2)c1[N+](=O)[O-]`, the concentration for total growth inhibition (TGI) in the experiment on A549 NSCLC, in the experiment with CCRF-CEM leukemia, with HOP-62 NSCLC, with HS 578T breast, with MCF7 breast and in the experiment on NCI-H226 lung was over 100 µM throughout. The same compound returned a TGI with SF-539 CNS of over 100 µM.

Consider `O=C(CCl)Nc1ccc(Cl)cc1`, for which the GI50 in the experiment on A549 NSCLC was 11.2 µM; with HOP-62 NSCLC it was 2.01 µM; in the experiment on HS 578T breast, 3.96 µM; in the experiment with MCF7 breast, 1.78 µM; in the experiment on NCI-H226 lung, 4.17 µM; in the experiment on RPMI-8226 leukemia, 3.14 µM. Further, in the experiment with SF-539 CNS, the GI50 is 3.78 µM. Also, the TGI in the experiment on A549 NSCLC was 26.9 µM; in the experiment on HOP-62 NSCLC it was 3.91 µM; in the experiment on HS 578T breast, 42.4 µM; in the experiment on MCF7 breast, 4.54 µM; with NCI-H226 lung, 15.7 µM; in the experiment on RPMI-8226 leukemia it was 9.45 µM. This compound gave a TGI in the experiment with SF-539 CNS of 12.6 µM.

Take `NC(N)=NCCCn1c2c(c3ccccc3c1=O)C(=O)c1ccccc1-2`: the GI50 with A549 NSCLC is 27.1 µM; with CCRF-CEM leukemia it was 19.9 µM; with HOP-62 NSCLC it was 0.695 µM; in the experiment on HS 578T breast it was 2.67 µM; in the experiment on MCF7 breast, 7.27 µM; in the experiment with RPMI-8226 leukemia it was 42.7 µM. The 50% growth inhibitory concentration (GI50) with SF-539 CNS was 0.369 µM. The total growth inhibition concentration (TGI) was over 100 µM in the experiment with A549 NSCLC; over 100 µM with CCRF-CEM leukemia; 3.64 µM in the experiment on HOP-62 NSCLC; 25.7 µM with HS 578T breast; 25.1 µM in the experiment with MCF7 breast; over 100 µM in the experiment on RPMI-8226 leukemia. Further, the TGI in the experiment with SF-539 CNS came out at 2.14 µM.

Take `c1ccc(C2=NNC3c4ccccc4-c4ccccc4N3C2)cc1` (stereo not given): the TGI is over 100 µM in the experiment with A549 NSCLC; over 100 µM in the experiment on HOP-62 NSCLC; over 100 µM in the experiment on HS 578T breast; over 100 µM with MCF7 breast; 71.7 µM in the experiment on NCI-H226 lung; 57.8 µM with RPMI-8226 leukemia. The TGI in the experiment with SF-539 CNS stood at 50.5 µM.
